Measured values: PubChem BioAssay (NCI)
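Protocol summary: plate cells (96-well), add compound at 5 concentrations, incubate 48 h, interpolate endpoints linearly. GI50: concentration for 50% inhibition of growth. The concentration for full growth arrest is given as TGI.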

Columns and labels:
Test in all cases: inhibition of tumour cell growth, NCI panel, 48 h
[1] = system: MDA-MB-231 breast
[2] = system: UACC-62 melanoma
[3] = system: HCC-2998 colon
[4] = system: PC-3 prostate
[5] = system: MDA-MB-435
[6] = system: OVCAR-8 ovarian
[7] = system: SF-268 CNS
[8] = system: CCRF-CEM leukemia
[9] = system: HOP-92 NSCLC
[10] = system: SK-MEL-5 melanoma
[11] = system: TK-10 renal
[12] = system: SK-MEL-28 melanoma
[13] = system: HT29 colon
[14] = system: NCI/ADR-RES ovarian
[15] = system: NCI-H226 lung
[16] = system: UO-31 renal
[17] = system: SK-OV-3 ovarian
[18] = system: SK-MEL-2 melanoma
[19] = system: MALME-3M melanoma
[20] = system: EKVX NSCLC
[21] = system: ACHN renal
[22] = system: A498 renal
[23] = system: MOLT-4 leukemia
[24] = system: SN12C renal
[25] = system: M14 melanoma
[26] = system: HL-60(TB) leukemia
[27] = system: MCF7 breast
[28] = system: SW-620 colon
[29] = system: OVCAR-3 ovarian
[30] = system: DU-145 prostate
[31] = system: LOX IMVI melanoma
[32] = system: U251 CNS
[33] = system: KM12 colon
[34] = system: NCI-H23 lung
[35] = system: SF-539 CNS
[36] = system: BT-549 breast
[37] = system: SNB-75 CNS
[38] = system: SNB-19 CNS
[39] = system: 786-0 renal
[40] = system: SF-295 CNS
[41] = system: HS 578T breast
[42] = system: COLO 205 colon
[43] = system: SR leukemia
[44] = system: IGROV1 ovarian
[45] = system: HCT-15 colon
[46] = system: T-47D breast
[47] = system: RXF 393 renal
[48] = system: A549 NSCLC
[49] = system: OVCAR-5 ovarian
[50] = system: K-562 leukemia
[51] = system: NCI-H460 lung
[52] = system: HCT-116 colon
[53] = system: CAKI-1 renal
[54] = system: RPMI-8226 leukemia
[55] = system: HOP-62 NSCLC
[56] = system: OVCAR-4 ovarian
[57] = system: NCI-H522 lung
[58] = system: UACC-257 melanoma

COc1cc(Nc2cc(O)c3c(=O)cc(-c4ccccc4)oc3c2)cc(OC)c1
GI50 [1]: 964 nM | TGI [1]: 18.4 µM | GI50 [2]: 387 nM | TGI [2]: > 37.4 µM | GI50 [3]: 2310 nM | TGI [3]: > 54 µM | GI50 [4]: 815 nM | TGI [4]: > 52.1 µM | GI50 [5]: 147 nM | TGI [5]: 498 nM | GI50 [6]: 900 nM | TGI [6]: 23.9 µM | GI50 [7]: 909 nM | TGI [7]: 30.9 µM | GI50 [8]: 411 nM | TGI [8]: > 100 µM | GI50 [9]: 944 nM | TGI [9]: 17.7 µM | GI50 [10]: 169 nM | TGI [10]: 9.97 µM | GI50 [11]: 4.94 µM | TGI [11]: 46.6 µM | GI50 [12]: 2840 nM | TGI [12]: > 100 µM | GI50 [13]: 3.33 µM | TGI [13]: > 36.9 µM | GI50 [14]: 437 nM | TGI [14]: 25 µM | GI50 [15]: 2570 nM | TGI [15]: 48 µM | GI50 [16]: 763 nM | TGI [16]: 30.7 µM | GI50 [17]: 548 nM | TGI [17]: 18.6 µM | GI50 [18]: 537 nM | TGI [18]: 40.4 µM | GI50 [19]: 754 nM | TGI [19]: > 100 µM | GI50 [20]: 769 nM | TGI [20]: > 100 µM | GI50 [21]: 628 nM | TGI [21]: > 100 µM | GI50 [22]: 351 nM | TGI [22]: 9.03 µM | GI50 [23]: 595 nM | TGI [23]: > 100 µM | GI50 [24]: 736 nM | TGI [24]: 75.5 µM | GI50 [25]: 466 nM | TGI [25]: > 100 µM | GI50 [26]: 355 nM | GI50 [27]: 35.7 nM | TGI [27]: > 100 µM | GI50 [28]: 377 nM | TGI [28]: > 100 µM | GI50 [29]: 274 nM | TGI [29]: 1640 nM | GI50 [30]: 476 nM | TGI [30]: 20.9 µM | GI50 [31]: 581 nM | TGI [31]: > 100 µM | GI50 [32]: 484 nM | TGI [32]: 18.3 µM | GI50 [33]: 282 nM | TGI [33]: > 39.2 µM | GI50 [34]: 922 nM | TGI [34]: 40 µM | GI50 [35]: 338 nM | TGI [35]: 1930 nM | GI50 [36]: 651 nM | TGI [36]: > 52.3 µM | GI50 [37]: 193 nM | TGI [37]: 750 nM | GI50 [38]: 533 nM | TGI [38]: 22.8 µM | GI50 [39]: 1340 nM | TGI [39]: 21.9 µM | GI50 [40]: 389 nM | TGI [40]: 8.33 µM | GI50 [41]: 338 nM | GI50 [42]: 4.68 µM | TGI [42]: > 100 µM | GI50 [43]: 253 nM | TGI [43]: > 100 µM | GI50 [44]: 409 nM | TGI [44]: 32.4 µM | GI50 [45]: 104 nM | TGI [45]: > 100 µM | GI50 [46]: 251 nM | TGI [46]: > 100 µM | GI50 [47]: 329 nM | TGI [47]: 1830 nM | GI50 [48]: 788 nM | TGI [48]: 97.3 µM | GI50 [49]: 1290 nM | TGI [49]: > 47.5 µM | GI50 [50]: 311 nM | TGI [50]: > 100 µM | GI50 [51]: 390 nM | TGI [51]: > 35.3 µM | GI50 [52]: 407 nM | TGI [52]: > 100 µM | GI50 [53]: 335 nM | TGI [53]: 16.8 µM | GI50 [54]: 471 nM | TGI [54]: > 100 µM | GI50 [55]: 795 nM | TGI [55]: 20.9 µM | GI50 [56]: 8.61 µM | TGI [56]: 41.9 µM | GI50 [57]: 203 nM | TGI [57]: 4.39 µM | GI50 [58]: 39.1 µM | TGI [58]: > 100 µM
